# In patent US4086417A, “Cytidine nucleotide derivatives” (Asahi Kasei Kogyo Kabushiki Kaisha, priority 1974, dated 1978):
# Structures can show the parent of a compound that is named as a salt. Where two headings read alike, the source gives them in different places.
# Key:
# [1] = test system: leukemia L-1210; settings: background; cited from earlier work
# [2] = cited from earlier work
# [3] = test system: deoxycytidine deaminase; settings: background; cited from earlier work
# [4] = test system: leukemia L-1210; assay: Antitumour activity in mice inoculated intraperitoneally with leukemia L-1210 (survival, T/C); type: in vivo, CDF-1 male mice; settings: for response vs control in vivo at 100 mg/kg / response vs control in vivo at 200 mg/kg / response vs control in vivo at 400 mg/kg: Mus musculus, L1210, ip, directly after injection of L-1210, after 2 days and after 6 days; for response vs control in vivo at 100 mg/kg: 100 mg/kg i.p.; for response vs control in vivo at 200 mg/kg: 200 mg/kg i.p.; for response vs control in vivo at 400 mg/kg: 400 mg/kg i.p.
# Experimental: The antitumour activity for mice of the test material was evaluated by means of survival rate comparison, T/C (%), that is, 100 times the mean survival period of the groups injected with the test material divided by the mean survival period of the comparison groups which were not injected with the test material.
# Further, for comparison, the following materials were also subjected to the same biological test: […]
# [5] = Solubility test: solubility in water; type: physicochemical
# From the text: In the aforesaid examples, the products were obtained as white solids.
# In Table 1, -Ara-C means "-1-β-D-arabinofuranosylcytosine" and -5'-Pna and -5'-PNa2 mean "-1-β-D-arabinofuranosylcytosine-5'-phosphate monosodium salt" and "-1-β-D-arabinofuranosylcytosine-5'-phosphate disodium salt," respectively.
compound,measurement,setting,value
"N=c1ccn2c(n1)O[C@H]1[C@H](O)[C@@H](CO)O[C@H]12 [2,2'-ANHYDROCYTOSINE ARABINOSIDE, 2,2'-anhydrocytosine arabinoside]",Antileukemial activity (in words),[1],does not have antileukemial activity
same,Biological half life / excretion (in words),[2]; in vivo,the biological half life of this derivative is as short as that of cytosine arabinoside
same,Deamination / resistance to deaminase (in words),[3],SHOWS HIGH RESISTANCE TO THE DEAMINOSE
"Nc1ccn([C@@H]2O[C@H](CO)[C@@H](O)[C@@H]2O)c(=O)n1 [Ara-C, 1-β-D-arabinofuranosylcytosine]",Antileukemial activity (in words),[1],one of the most effective known antileukemial agents
same,response vs control in vivo at 100 mg/kg,[4],127%
same,response vs control in vivo at 200 mg/kg,[4],136%
same,response vs control in vivo at 400 mg/kg,[4],164%
same,Biological half life / excretion (in words),[2]; background,the biological half life of the medicament is short
same,Deamination / resistance to deaminase (in words),[3],readily converted into uracil arabinoside
O=C(Nc1ccn([C@@H]2O[C@H](COP(=O)(O)O)[C@@H](O)[C@@H]2O)c(=O)n1)C12CC3CC(CC(C3)C1)C2 [N^4 -Adamantoyl-5'-PNa2],Solubility in water,[5],> 10000 µg/mL
"O=C(Nc1ccn([C@@H]2O[C@H](COP(=O)(O)O)[C@@H](O)[C@@H]2O)c(=O)n1)C12CC3CC(CC(C3)C1)C2 [N^4 -Adamantoyl-5'-PNa, N^4-adamantoyl-1-β-D-arabinofuranosylcytosine-5'-phosphate monosodium]",Solubility in water,[5],2000 µg/mL
O=C(Nc1ccn([C@@H]2O[C@H](CO)[C@@H](O)[C@@H]2O)c(=O)n1)C12CC3CC(CC(C3)C1)C2 [N^4 -Adamantoyl-Ara-C],solubility,[5],10 µg/mL
CCCCCCCCCCCCCCCCC(=O)Nc1ccn([C@@H]2O[C@H](COP(=O)(O)O)[C@@H](O)[C@@H]2O)c(=O)n1 [N^4 -Margaroyl-5'-PNa2],Solubility in water,[5],> 50000 µg/mL
"CCCCCCCCCCCCCCCCC(=O)Nc1ccn([C@@H]2O[C@H](COP(=O)(O)O)[C@@H](O)[C@@H]2O)c(=O)n1 [N^4 -Margaroyl-5'-PNa, N^4-margaroyl-1-β-D-arabinofuranosylcytosine-5'-phosphate monosodium]",response vs control in vivo at 100 mg/kg,[4],> 395%
same,response vs control in vivo at 200 mg/kg,[4],> 382%
same,response vs control in vivo at 400 mg/kg,[4],101%
same,Solubility in water,[5],> 10000 µg/mL
CCCCCCCCCCCCCCCCC(=O)Nc1ccn([C@@H]2O[C@H](CO)[C@@H](O)[C@@H]2O)c(=O)n1 [N^4 -Margaroyl-Ara-C],response vs control in vivo at 100 mg/kg,[4],> 397%
same,response vs control in vivo at 200 mg/kg,[4],188%
same,response vs control in vivo at 400 mg/kg,[4],99%
same,solubility,[5],< 10 µg/mL
CCCCCCCCCCCCCCCCCCCCCCCCCCCC(=O)Nc1ccn([C@@H]2O[C@H](COP(=O)(O)O)[C@@H](O)[C@@H]2O)c(=O)n1 [N^4 -Montanoyl-5'-PNa2],Solubility in water,[5],> 5000 µg/mL
"CCCCCCCCCCCCCCCCCCCCCCCCCCCC(=O)Nc1ccn([C@@H]2O[C@H](COP(=O)(O)O)[C@@H](O)[C@@H]2O)c(=O)n1 [N^4 -Montanoyl-5'-PNa, N^4-montanoyl-1-β-D-arabinofuranosylcytosine-5'-phosphate monosodium]",Solubility in water,[5],1000 µg/mL
CCCCCCCCCCCCCCCCCCCCCCCCCCCC(=O)Nc1ccn([C@@H]2O[C@H](CO)[C@@H](O)[C@@H]2O)c(=O)n1 [N^4 -Montanoyl-Ara-C],solubility,[5],< 10 µg/mL
CCCCCCCC/C=C\CCCCCCCC(=O)Nc1ccn([C@@H]2O[C@H](COP(=O)(O)O)[C@@H](O)[C@@H]2O)c(=O)n1 [N^4 -Oleoyl-5'-PNa2],Solubility in water,[5],> 250000 µg/mL
"CCCCCCCC/C=C\CCCCCCCC(=O)Nc1ccn([C@@H]2O[C@H](COP(=O)(O)O)[C@@H](O)[C@@H]2O)c(=O)n1 [N^4 -Oleoyl-5'-PNa, N^4-oleoyl-1-β-D-arabinofuranosylcytosine-5'-phosphate monosodium]",response vs control in vivo at 100 mg/kg,[4],270%
same,response vs control in vivo at 200 mg/kg,[4],156%
same,response vs control in vivo at 400 mg/kg,[4],103%
same,Solubility in water,[5],> 50000 µg/mL
CCCCCCCC/C=C\CCCCCCCC(=O)Nc1ccn([C@@H]2O[C@H](CO)[C@@H](O)[C@@H]2O)c(=O)n1 [N^4 -Oleoyl-Ara-C],response vs control in vivo at 100 mg/kg,[4],261%
same,response vs control in vivo at 200 mg/kg,[4],135%
same,response vs control in vivo at 400 mg/kg,[4],94%
same,solubility,[5],50 µg/mL
CCCCCCCCCCCCCCCC(=O)Nc1ccn([C@@H]2O[C@H](COP(=O)(O)O)[C@@H](O)[C@@H]2O)c(=O)n1 [N^4 -Palmitoyl-5'-PNa2],Solubility in water,[5],> 150000 µg/mL
"CCCCCCCCCCCCCCCC(=O)Nc1ccn([C@@H]2O[C@H](COP(=O)(O)O)[C@@H](O)[C@@H]2O)c(=O)n1 [N^4 -Palmitoyl-5'-PNa, N^4-palmitoyl-1-β-D-arabinofuranosylcytosine-5'-phosphate monosodium]",response vs control in vivo at 100 mg/kg,[4],> 349%
same,response vs control in vivo at 200 mg/kg,[4],> 342%
same,response vs control in vivo at 400 mg/kg,[4],98%
same,Solubility in water,[5],> 30000 µg/mL
"CCCCCCCCCCCCCCCC(=O)Nc1ccn([C@@H]2O[C@H](CO)[C@@H](O)[C@@H]2O)c(=O)n1 [N^4 -Palmitoyl-Ara-C, N^4-palmitoyl-1-β-D-arabinofuranosylcytosine]",response vs control in vivo at 100 mg/kg,[4],> 346%
same,response vs control in vivo at 200 mg/kg,[4],83%
same,response vs control in vivo at 400 mg/kg,[4],78%
same,solubility,[5],10 µg/mL
CCCCCCCCCCCCCCC(=O)Nc1ccn([C@@H]2O[C@H](CO)[C@@H](O)[C@@H]2O)c(=O)n1 [N^4 -Pentadecanoyl-Ara-C],response vs control in vivo at 100 mg/kg,[4],302%
same,response vs control in vivo at 200 mg/kg,[4],287%
same,response vs control in vivo at 400 mg/kg,[4],91%
CCC(=O)Nc1ccn([C@@H]2O[C@H](COP(=O)(O)O)[C@@H](O)[C@@H]2O)c(=O)n1 [N^4 -Propionyl-5'-PNa],response vs control in vivo at 100 mg/kg,[4],99%
same,response vs control in vivo at 200 mg/kg,[4],100%
same,response vs control in vivo at 400 mg/kg,[4],101%
CCC(=O)Nc1ccn([C@@H]2O[C@H](CO)[C@@H](O)[C@@H]2O)c(=O)n1 [N^4 -Propionyl-Ara-C],response vs control in vivo at 100 mg/kg,[4],131%
same,response vs control in vivo at 200 mg/kg,[4],131%
same,response vs control in vivo at 400 mg/kg,[4],135%
"CCCCCCCCCCCCCCCCCC(=O)Nc1ccn([C@@H]2O[C@H](COP(=O)(O)O)[C@@H](O)[C@@H]2O)c(=O)n1 [N^4 -Stearoyl-5'-PNa2, N^4-stearoyl-1-β-D-arabinofuranosylcytosine-5'-phosphate disodium salt]",Solubility in water,[5]; disodium salt,> 50000 µg/mL
"CCCCCCCCCCCCCCCCCC(=O)Nc1ccn([C@@H]2O[C@H](COP(=O)(O)O)[C@@H](O)[C@@H]2O)c(=O)n1 [N^4 -Stearoyl-5'-PNa, N^4-stearoyl-1-β-D-arabinofuranosylcytosine-5'-phosphate monosodium salt]",response vs control in vivo at 100 mg/kg,[4],> 363%
same,response vs control in vivo at 200 mg/kg,[4],> 338%
same,response vs control in vivo at 400 mg/kg,[4],104%
same,Solubility in water,[5]; monosodium salt,> 10000 µg/mL
"CCCCCCCCCCCCCCCCCC(=O)Nc1ccn([C@@H]2O[C@H](CO)[C@@H](O)[C@@H]2O)c(=O)n1 [N^4 -Stearoyl-Ara-C, N^4-stearoyl-1-β-D-arabinofuranosylcytosine]",response vs control in vivo at 100 mg/kg,[4],> 274%
same,response vs control in vivo at 200 mg/kg,[4],123%
same,response vs control in vivo at 400 mg/kg,[4],111%
same,solubility,[5],< 10 µg/mL
CCCCC(=O)Nc1ccn([C@@H]2O[C@H](COP(=O)(O)O)[C@@H](O)[C@@H]2O)c(=O)n1 [N^4 -Valeryl-5'-PNa],response vs control in vivo at 100 mg/kg,[4],101%
same,response vs control in vivo at 200 mg/kg,[4],99%
same,response vs control in vivo at 400 mg/kg,[4],101%
CCCCC(=O)Nc1ccn([C@@H]2O[C@H](CO)[C@@H](O)[C@@H]2O)c(=O)n1 [N^4 -Valeryl-Ara-C],response vs control in vivo at 100 mg/kg,[4],133%
same,response vs control in vivo at 200 mg/kg,[4],171%
same,response vs control in vivo at 400 mg/kg,[4],191%
CCCCCCCCCCCCCCCCCC(=O)Nc1ccn([C@@H]2O[C@H](COP(=O)(O)O)[C@@H](O)[C@@H]2O)c(=O)n1 [N^4-stearoyl-1-β-D-arabinofuranosylcytosine-5'-phosphate],Antileukemial effect on mice (in words),"[4]; L-1210 in mice, conclusions in words",had the highest antileukemial effect on mice
"CCCCCCCCCCCCCCCCCC(=O)Nc1ccn([C@@H]2O[C@H](CO)[C@@H](OP(=O)(O)O)[C@@H]2OP(=O)(O)O)c(=O)n1 [N^4-stearoyl-Ara-C-2',3'-(PNa)2]",response vs control in vivo at 100 mg/kg,[4],184%
same,response vs control in vivo at 200 mg/kg,[4],119%
same,response vs control in vivo at 400 mg/kg,[4],103%
"CCCCCCCCCCCCCCCCCC(=O)Nc1ccn([C@@H]2O[C@H](CO)[C@@H](O)[C@@H]2OP(=O)(O)O)c(=O)n1 [N^4-stearoyl-Ara-C-2'-PNa, N^4-stearoyl-1-β-D-arabinofuranosylcytosine-2'-phosphate monosodium salt]",response vs control in vivo at 100 mg/kg,[4],228%
same,response vs control in vivo at 200 mg/kg,[4],146%
same,response vs control in vivo at 400 mg/kg,[4],121%
"CCCCCCCCCCCCCCCCCC(=O)Nc1ccn([C@@H]2O[C@H](COP(=O)(O)O)[C@@H](OP(=O)(O)O)[C@@H]2O)c(=O)n1 [N^4-stearoyl-Ara-C-3',5'-(PNa)2]",response vs control in vivo at 100 mg/kg,[4],215%
same,response vs control in vivo at 200 mg/kg,[4],138%
same,response vs control in vivo at 400 mg/kg,[4],107%
CCCCCCCCCCCCCCCCCC(=O)Nc1ccn([C@@H]2O[C@H](CO)[C@@H](OP(=O)(O)O)[C@@H]2O)c(=O)n1 [N^4-stearoyl-Ara-C-3'-PNa],response vs control in vivo at 100 mg/kg,[4],286%
same,response vs control in vivo at 200 mg/kg,[4],219%
same,response vs control in vivo at 400 mg/kg,[4],112%
O=c1ccn([C@@H]2O[C@H](CO)[C@@H](O)[C@@H]2O)c(=O)[nH]1 [uracil arabinoside],Antileukemial activity (in words),[1],possesses no antileukemial activity
